Source: US20180116999A1, “METHODS OF TREATING FIBROTIC DISEASES USING TETRAHYDROCANNABINOL-11-OIC ACIDS” (Corbus Pharmaceuticals, Inc., priority 2011, published 2018)
“Also recorded” adds a separate entry of the source. Read-outs that look alike come from different tables or passages of the source.

Legend:
CB2 receptor = CB2 receptor (Homo sapiens, UniProt P34972); details: cited from earlier work
CB1 receptor = CB1 receptor (Homo sapiens, UniProt P21554); details: cited from earlier work
[1] = tested on: embryogenic fibroblastic 3T3 L1 cells; details: process mediated by PPAR-γ; cited from earlier work
humans = details: doses up to 80 mg/day, cited from earlier work
PPAR-γ = PPAR-γ expression by Western blot in SSc fibroblasts; type: cell-based, human; details: AjA 5 microM and 10 microM
Method: (§1) SSc and healthy dermal fibroblasts were cultured in DMEM containing 2.5% of fetal calf serum (FCS) for 24 hours before the experiments. Dermal fibroblasts were incubated with AjA (JB Therapeutics, Newton, Mass., USA), dissolved in dimethyl sulfoxide at 0.1, 1, 5 and 10 microM concentrations for 24 hours. Experiments with the PPAR-γ irreversible antagonist GW9662 (Tocris Bioscience, Bristol, UK), 1 and 10 microM, were performed by incubating dermal fibroblasts for 15 minutes before AjA treatment.
After rinsing twice with PBS, cells were lysed with Ripa buffer (Santa Cruz Biotechnology, Santa Cruz, Calif., USA). Subsequently, cell lysates were incubated on ice for 30 minutes and centrifuged at 14,000 g for 20 minutes. Protein concentrations were measured using the Bradford assay (Bio-Rad, Reinach, Switzerland). […] After incubation with horseradish peroxidase (HRP)-conjugated donkey anti-goat antibodies Santa Cruz Biotechnology) at a dilution of 1:10000 for 45 minutes, signals were detected with ECL Western Blotting Detection Reagents (Amersham Bioscience, Freiburg, Germany) and exposure to x-ray film (SuperRX; Fuji, Dusseldorf, Germany). For confirmation of equal loading of proteins, the amount of alpha-tubulin was determined using mouse anti-human a-tubulin antibodies (dilution 1:1,000; Sigma) and HRP-conjugated rabbit anti-mouse antibodies (dilution 1:5000; Santa Cruz). […]

15d-PGJ2 = 15d-PGJ2 supernatant levels (ELISA) of SSc fibroblasts; type: cell-based, human; details: incubation with AjA
Method: as §1
(§2) The supernatant was collected and stored at −20° C. prior to and after AjA±GW9662 treatment. An EIA kit (Takara Bio, Otsu, Japan) and ELISA kit (Euroclone, Lugano, Switzerland) were used to assess the procollagen type I carboxy-terminal peptide (PIP) and TGF-β and PGJ2 supernatant levels, respectively. Results are mean±SD of five separate experiments.

[2] = target: T1, peroxisome proliferated-activated receptor-γ (PPAR-γ) (Homo sapiens, UniProt P37231); details: cited from earlier work
T1 sequence (P37231 1-505): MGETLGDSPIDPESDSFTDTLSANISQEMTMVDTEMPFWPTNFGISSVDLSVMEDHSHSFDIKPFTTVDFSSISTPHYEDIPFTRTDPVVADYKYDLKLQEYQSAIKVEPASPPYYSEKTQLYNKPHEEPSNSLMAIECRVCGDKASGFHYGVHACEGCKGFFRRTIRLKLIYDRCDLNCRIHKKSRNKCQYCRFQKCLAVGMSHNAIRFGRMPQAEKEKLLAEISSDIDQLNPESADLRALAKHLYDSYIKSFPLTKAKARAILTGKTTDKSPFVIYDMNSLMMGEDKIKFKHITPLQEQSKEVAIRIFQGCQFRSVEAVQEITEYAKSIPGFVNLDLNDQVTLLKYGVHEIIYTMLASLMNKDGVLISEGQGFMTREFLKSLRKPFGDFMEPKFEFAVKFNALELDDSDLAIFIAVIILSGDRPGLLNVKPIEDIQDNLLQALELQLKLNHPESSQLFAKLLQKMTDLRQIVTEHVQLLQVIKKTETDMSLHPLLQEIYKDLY

[3] = tested on: bleomycin-induced dermal fibrosis in DBA/2J mice; assay: Bleomycin-induced dermal fibrosis; type: in vivo
Method: Skin fibrosis was induced in two groups of 6-week old DBA/2J mice by local injection of bleomycin. Briefly, 100 microliter of BLM dissolved in 0.9% NaCI at a concentration of 0.5 mg/ml were administered every other day, in well defined areas (1 cm^2) of the upper back. One group of BLM-challenged mice received orally AjA 1 mg/kg/day, dissolved in seed oil. Subcutaneous injections of 100 ul 0.9% NaCI were used as controls. After 21 days, animals were killed by cervical dislocation. The injected skin was removed and processed for analysis. Each treatment group consisted of eight mice. The local ethical committee approved all animal experiments. […].
Three lesional skin samples were taken from every animal of each group and 5 μm skin sections (three for each skin sample) were stained with haematoxylin and eosin. Dermal thickness was calculated at 10× microscopic magnification by measuring the distance between the dermal—epidermal junction and the dermal—subcutaneous fat junction (micrometer) in five randomly selected fields for each skin section. Results were expressed as mean±SD. Two different examiners performed the evaluation blindly.
The collagen content of lesional skin was evaluated by colourimetric quantification of hydroxyproline on three different skin biopsies (3 mm punch) taken from every animal in each group. 15 Absorbencies were measured at 560 nm in triplicate. The results were expressed as μg of hydroxyproline per biopsy (mean±SD).
Skin sections (5 μm) were processed in order to evaluate expression of a smooth muscle actin (α-SMA) (mouse monoclonal antibody) (Santa Cruz Biotechnology, Santa Cruz, Calif., USA) After deparaffinization, skin sections were incubated with 3% bovine serum albumin for 30 minutes to block nonspecific binding, followed by incubation with 3% H2O2 for 5 minutes to block endogenous peroxidase activity. A-SMA staining was performed according to the protocol of manufacturer using M.O.M kit (Vector, UK). Staining was visualized with diaminobenzidine, using a peroxidase substrate kit (Dako, Glostrup Denmark). Cell counts were performed blindly by two different operators, at 40× magnification, in five non-contiguous microscope fields of three sections from each lesional skin sample. Results are expressed as mean±SD of positive spindle-shaped fibroblastic cells per field.

SSc fibroblasts = assay: Collagen (PIP) concentration in supernatant of SSc fibroblasts; type: cell-based, human; details: for reversal of AjA inhibitory effect on PIP/collagen production by PPAR-γ antagonist: antagonist 10 μM, pre-incubation 15 minutes before AjA
TGF-beta = TGF-beta supernatant levels (ELISA) of SSc fibroblasts; type: cell-based, human
Method: as §1, §2

[4] = tested on: bleomycin-induced lung fibrosis; assay: Bleomycin lung fibrosis, Day 21 histology of lung; type: in vivo
[5] = tested on: SSc and healthy fibroblasts; assay: Cell viability (MTT assay); type: cell-based, human; details: AjA in concentrations up to 10 pM (so in the source), 24 hours, data not shown
Method: SSc and healthy fibroblasts were plated at a density of 100000 cells/well in 24 well plate and treated with AjA at concentrations of 0.1, 1, 5 and 10 μM for 24 hours in presence or absence of GW9662 at concentrations of 1 and 10 μM. Cell metabolic activity was measured by 3-(4,5-dimethylthiazol-2-yl)-2,5-diphenyltetrazolium bromide (MTT) assay. After removal of 100 μl of the growth medium, MTT was added at a final concentration of 3 mg/ml, and the cells were incubated at 37° C. for an additional 4 hours. Formazan crystals were dissolved in DMSO and optical density was measured at 570 nm using a spectrophotometer.

[6] = listed as (6aR,10aR)-4-(1,1-dimethylheptyl)-Δ8-tetrahydro-cannabinol-9-carboxylic acid
[7] = AjA 1 mg/kg/day, BLM-challenged mice
[8] = AjA 1 mg/kg/day, after treatment
[9] = AjA 10 pM (so in the source), SSc fibroblasts

Sequence of CB1 receptor (P21554 whole entry): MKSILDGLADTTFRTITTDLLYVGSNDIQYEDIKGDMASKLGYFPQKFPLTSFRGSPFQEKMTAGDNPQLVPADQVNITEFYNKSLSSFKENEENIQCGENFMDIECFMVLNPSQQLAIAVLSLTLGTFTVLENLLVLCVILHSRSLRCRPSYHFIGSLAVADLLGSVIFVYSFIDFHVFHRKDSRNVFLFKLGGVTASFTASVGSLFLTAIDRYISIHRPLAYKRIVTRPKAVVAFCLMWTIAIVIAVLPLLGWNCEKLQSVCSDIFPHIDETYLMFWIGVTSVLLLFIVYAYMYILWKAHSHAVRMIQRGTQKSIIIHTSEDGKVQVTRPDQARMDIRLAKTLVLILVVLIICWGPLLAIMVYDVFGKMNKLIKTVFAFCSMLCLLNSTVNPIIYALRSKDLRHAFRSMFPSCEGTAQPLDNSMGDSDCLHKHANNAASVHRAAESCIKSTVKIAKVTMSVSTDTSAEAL
Sequence of CB2 receptor (P34972 whole entry): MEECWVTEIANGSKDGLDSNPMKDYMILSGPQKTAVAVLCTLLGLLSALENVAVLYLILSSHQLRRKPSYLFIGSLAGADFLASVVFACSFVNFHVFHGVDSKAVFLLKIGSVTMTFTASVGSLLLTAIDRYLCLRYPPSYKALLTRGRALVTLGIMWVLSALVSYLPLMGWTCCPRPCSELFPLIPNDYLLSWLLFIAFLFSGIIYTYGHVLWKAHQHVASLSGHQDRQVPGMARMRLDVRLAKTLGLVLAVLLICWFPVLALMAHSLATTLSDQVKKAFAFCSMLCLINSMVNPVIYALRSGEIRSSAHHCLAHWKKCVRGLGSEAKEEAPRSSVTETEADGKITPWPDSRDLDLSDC

## CCCCCCC(C)(C)c1cc(O)c2c(c1)OC(C)(C)[C@@H]1CC=C(C(=O)O)C[C@@H]21 [AjA, (6aR,10aR)-3-(1,1-dimethylheptyl)-6a,7,10,10a-tetrahydro-1-hydroxy-6,6-dimethyl-6H-Dibenz o(b,d)pyran-9-carboxylic acid]
CB2 receptor
  affinity for CB2 receptor: weak ligand
CB2 receptor; [6]
  affinity for CB2 receptor: high affinity
CB1 receptor
  affinity for CB1 receptor: weak ligand
CB1 receptor; [6]
  affinity for CB1 receptor: high affinity
[1]
  differentiation of 3T3 L1 cells into adipocytes: stimulates the differentiation of embryogenic fibroblastic 3T3 L1 cells into adipocytes
humans; without significant psychotropic effects
  tolerability in humans: well tolerated
humans
  chronic neuropathic pain in humans: can reduce chronic neuropathic pain
PPAR-γ
  PPAR-γ protein expression in SSc fibroblasts: completely restored the expression of PPAR-γ
15d-PGJ2
  levels of 15d-PGJ2 in supernatants of SSc fibroblasts: strongly increased the levels of 15d-PGJ2 in dose-dependent manner
[2]
  binding to and activation of PPAR-γ: binds to and activates
[3]; AjA 1 mg/kg/day orally, 21 days, BLM-challenged DBA/2J mice
  dermal thickness of lesional skin: reduced skin thickness nearly to control levels; also recorded: dermal thickness was equal to control group
[3]; AjA 1 mg/kg/day, 21 days, BLM-challenged mice
  hydroxyproline content of lesional skin (collagen deposition): completely abrogated the collagen deposition induced by BLM; also recorded: dermal thickness was equal to control group
[3]; [7]
  alpha-SMA positive cells, immunohistochemistry: strong downregulation of alpha-SMA positive cells
  leukocyte infiltration, ECM accumulation and fat layer replacement in lesional skin (histology): the subcutaneous leukocyte infiltration, the accumulation of ECM and the fat layer replacement were reduced; also recorded: strongly reduced the leukocyte infiltration
  reduction of number of myofibroblasts (α-SMA positive spindle-shaped fibroblastic cells) in lesional skin: up to 26%
[3]; [8]
  body weight, BLM/AjA group vs BLM group: did not differ in terms of body weight
  signs of toxicity (ruffled fur, reduced activity): no other signs of toxicity
SSc fibroblasts; AjA 0.1, 1, 5 and 10 μM, 24 hours, SSc fibroblasts
  supernatant PIP levels, dose dependence: dose-dependently decreased the levels of PIP; also recorded: dose-dependent reduction of supernatant PIP levels
SSc fibroblasts; Homo sapiens, Fibroblast, AjA 10 μM, 24 hours, SSc fibroblasts supernatant, read-out: mean PIP reduction (maximal inhibition)
  inhibition at 10 µM: ≤ 60%
TGF-beta; [9]
  duration of significant TGF-beta downregulation: ≤ 24 h
  time of maximum TGF-beta inhibition: 2 h
TGF-beta; AjA 5 and 10 microM, SSc fibroblasts
  supernatant TGF-beta: significant reduction of supernatant TGF-beta
TGF-beta; SSc fibroblasts, AjA
  time of maximum TGF-beta suppression: 2 h
TGF-beta; incubation with AjA, dose-dependent
  reduction in TGF-beta concentrations in supernatants from SSc fibroblasts: up to 50%
[4]; AjA 1 and 5 mg/kg qd x 21 d, bleomycin
  lung fibrosis (histology): fibrosis was significantly inhibited
[4]; AjA qd x 21 d, more evident in the 5 mg/kg group
  parenchymal infiltration of leukocytes in lung: parenchymal infiltration of leukocytes was reduced
[5]
  metabolic activity measured by the MTT assay: not affected

## O=C(Nc1ccccc1)c1cc([N+](=O)[O-])ccc1Cl [GW9662, reference compound]
SSc fibroblasts; SSc fibroblasts
  reversal of AjA inhibitory effect on PIP/collagen production by PPAR-γ antagonist: completely reverted
SSc fibroblasts; SSc fibroblasts, listed as GW966
  reversal of AjA inhibitory effect on PIP/collagen production by PPAR-γ antagonist: completely prevented the anti-fibrotic effects of AjA
SSc fibroblasts; antagonist 1-10 μM pre-incubation
  prevention of AjA inhibitory effect on collagen production by PPAR-γ antagonist, dose dependence: prevented by GW9662 in a dose-dependent manner
